Patent publication US20250026741A1, “INHIBITORS OF THE ONCOGENIC SHP2 PHOSPHATASE AND USES THEREOF” (Sanford Burnham Prebys Medical Discovery Institute, priority 2021, published 2025)
pIC50: −log10 of the molar value.

Key:
[1] = tested on: p-ERK1/2 in MOLM-13 AML cells; assay: Phospho-ERK1/2 immunoblot analysis, MOLM-13; assay type: cell-based; settings: MOLM-13, 3 h treatment; #02 3, 10, 30 μM; RMC-4550 1 μM
Experimental: Because SHP2 activity is critical for ERK activation, we used phospho-ERK1/2 (p-ERK1/2) as a more direct readout of SHP2 inhibitor efficacy. […] However, a greater effect of #02 was observed after 24 h treatment. […] This p-ERK rebound in MOLM-13 cells treated with RMC-4550 is reminiscent of previously reported data from human hepatoma Hep3B cells treated with SHP099.
Total protein extracts were prepared in modified RIPA lysis buffer (25 mM Tris-HCl, pH 7.4, 10% glycerol, 0.2% Triton™ X-100, 150 mM NaCl, 2 mM Na3VO4, 1 mM EDTA) containing a protease inhibitor cocktail (Roche Applied Science, Indianapolis, IN). Equal amounts of protein were separated on 4-12% (p-ERK1/2 blots) or 4-20% (SHP2 blots) Bis-Tris gels by SDS-PAGE and transferred to nitrocellulose (p-ERK1/2 blots) or 0.2 μm PVDF (SHP2 blots) membranes. Membranes were blocked in 5% dry milk (Bio-Rad, Hercules, CA) in TBS-Tween 20 (0.1% vol/vol; TBS-T) for 1 h at room temperature. Protein-bound membranes were incubated with indicated primary antibody overnight at 4° C. After washing three times with TBS-T, membranes were incubated for 1 h with horseradish peroxidase-conjugated secondary antibody, then visualized by an ECL Prime detection system (GE Healthcare). Immunoblotting experiments were carried out at least three times and representative images are shown. Densitometric quantitation of immunoblots was performed using Image Studio Lite Software. Changes of phosphorylated ERK1/2 to total ERK1/2 rations are expressed as percentage of the vehicle-treated controls. The following antibodies were used: Phospho-Erk1/2 Ab, Cell Signaling, #9101S; total Erk1/2 Ab, Cell Signaling, #9102S; SHP2 Ab, Bethyl, A301-544A, lot #1; GAPDH (14C10) mAb, Cell Signaling, #2118S, lot #14.

[2] = tested on: patient-derived AML cells; assay: Viability of AML patient-derived cells; assay type: cell-based, human; settings: 10 μM, two patient samples, 2 d, 4 d, or 6 d
From the text: Patient-derived AML cells were obtained from Carol Burian and Dr. James Mason (Scripps MD Anderson, La Jolla, CA) under approved IRB protocol 13-6180. Peripheral blood mononuclear cells (PBMCs) were isolated by traditional Ficoll-Paque™ PLUS (17-1440-02, GE Healthcare) centrifugation according to the manufacturer's instructions, and red blood cells were lysed using RBC Lysis Buffer (Alfa Aesar, cat. #J62990). Final PBMCs were resuspended in Bambanker serum-free freezing medium (Wako Pure Chemical Industries, Ltd.) and stored frozen before cell viability was assessed as described below.
(§1) Viability of AML, esophageal carcinoma, and TF-1 cells was assessed using the ATP-depletion assay CellTiter-Glo® (Promega). Cells were harvested at 1×10^6/mL to 2×10^6 cells/mL with cell numbers determined by trypan blue using the Countess Cell counter (Thermo Scientific) and resuspended in culture media. 3K cells (in 20 mL) were seeded in a 384-well format white, clear bottom microplate (#781098, Greiner) spotted with test compound or vehicle control (DMSO) using an Echo 555 Liquid Handler. […] Luminescence was read on a Tecan Spark® Multimode Microplate Reader and data analyzed using Graph Pad Prism software.

[3] = tested on: U-937 AML cells harboring G60R oncogenic mutation in SHP2; assay: Cell viability assay, U-937 (SHP2 G60R); assay type: cell-based; settings: U-937 cells (SHP2 G60R), 0.123 to 30 μM, 3 d
From the text: (§2) Oncogenic gain-of-function mutations in SHP2 drive leukemogenesis in a significant number of leukemia patients. However, due to their unique mechanism of action, the existing SHP2 allosteric inhibitors lack activity against the most common SHP2 oncogenic variants. Thus, we tested whether #02 can inhibit the growth of leukemia cells expressing oncogenic SHP2 variants. […] Using the U-937 AML cell line, which harbors a G60R oncogenic mutation in SHP2, we treated cells with either #02 or RMC-4550 at various concentrations, ranging from 0.123 to 30 μM (FIG. 4A). […] We also assessed the effects of #02 and RMC-4550 on ERK1/2 activation in the SHP2 mutant U-937 cell line. Similar to the immunoblot experiments described above, U-937 AML cells were treated with either vehicle control (DMSO), #02 (1, 3, 10, or 30 μM), or with RMC-4550 (1 μM) for 24 h and processed for p-ERK1/2 immunoblot analysis (FIG. 4B).
as §1, with “media.” for “media. 3K cells (in 20 mL) were seeded in a 384-well format white, clear bottom microplate (#781098, Greiner) spotted with test compound or vehicle control (DMSO) using an Echo 555 Liquid Handler.”

[4] = tested on: p-ERK1/2 in U-937 AML cells (SHP2 G60R); assay: Phospho-ERK1/2 immunoblot analysis, U-937; assay type: cell-based; settings: U-937, 24 h; #02 1, 3, 10, 30 μM; RMC-4550 1 μM
From the text: as §2
Total protein extracts were prepared in modified RIPA lysis buffer (25 mM Tris-HCl, pH 7.4, 10% glycerol, 0.2% Triton™ X-100, 150 mM NaCl, 2 mM Na3VO4, 1 mM EDTA) containing a protease inhibitor cocktail (Roche Applied Science, Indianapolis, IN). […] Densitometric quantitation of immunoblots was performed using Image Studio Lite Software. Changes of phosphorylated ERK1/2 to total ERK1/2 rations are expressed as percentage of the vehicle-treated controls. […]

[5] = tested on: MOLM-13 AML cells (expressing WT SHP2); assay: Cell viability assay (CellTiter-Glo), MOLM-13; assay type: cell-based; settings: regular MOLM-13 cells, 72 h, CRISPR comparison experiment
Experimental: (§3) Next, we performed an 11-day colony formation assay with TNBC cells treated with #02 or SHP099 at 5, 10, or 20 μM (FIG. 3D).
Finally, we evaluated the selectivity of our top two compounds, #01 and #02, on MOLM-13 AML cells in which SHP2 was depleted using CRISPR-Cas9 knock-out (KO). High-efficiency Cas9-editing MOLM-13 cells were generated by transducingMOLM-13 cells with a Cas9 lentiviral construct. Stable clones were tested for editing efficiency by performing TIDE analysis (45), and these MOLM13-Cas9 cells were transduced with a lentiviral construct containing an AAVS1 single guide RNA (sgRNA) and an mCherry reporter for bulk-sorting of cells with successful AAVS1 editing. […] Cells were treated with inhibitors at various concentrations (ranging from […] to 58 nM) or vehicle control (DMSO) for 72 h, before cell viability was assessed.
Viability of AML, esophageal carcinoma, and TF-1 cells was assessed using the ATP-depletion assay CellTiter-Glo® (Promega). Cells were harvested at 1×10^6/mL to 2×10^6 cells/mL with cell numbers determined by trypan blue using the Countess Cell counter (Thermo Scientific) and resuspended in culture media. […] Luminescence was read on a Tecan Spark® Multimode Microplate Reader and data analyzed using Graph Pad Prism software. […]

[6] = tested on: BT-549 triple-negative breast cancer cells; assay: TNBC cell viability assay (CellTiter-Glo), BT-549; assay type: cell-based; settings: BT-549 cells, various concentrations
Experimental: as §3
(§4) Triple-negative breast cancer cell viability was assessed using the ATP-depletion assay CellTiter-Glo (Promega). Briefly, 2.5K cells in […] media (RPMI+10% FBS+1× Penicillin-Streptomycin (Omega Scientific)) were seeded per well of a 384-well tissue culture treated plate (Greiner). 25 nL of 1000× test compound were added using a Labcyte Echo acoustic dispenser and the cells incubated for 5 days before addition of […] of CellTiter-Glo reagent as described by the manufacturer. Luminescence was detected on a BioTek Synergy 2 microplate reader and the values normalized to those of vehicle (DMSO) treated controls before being plotted using GraphPad Prism.

[7] = tested on: MDA-MB-468 triple-negative breast cancer cells; assay: TNBC cell viability assay (CellTiter-Glo), MDA-MB-468; assay type: cell-based; settings: MDA-MB-468 cells, various concentrations
Experimental: as §3, §4

[8] = tested on: TNBC cells (BT-549 and MDA-MB-468); assay: 11-day colony formation assay; assay type: cell-based; settings: 5, 10, or 20 μM, 11 days
Experimental: as §3
MDA-MB-468 and […] triple-negative breast cancer cells were maintained in DMEM+10% FBS supplemented with 1× Penicillin-Streptomycin/L-Glutamine (Omega Scientific). 1.5K cells (in […]) were seeded per well of a standard 24-well tissue culture plate (Falcon) and allowed to adhere for 24 h, before the addition of drug(s) as described. After a further 96 h, media was replaced with fresh media containing the same test compounds and concentrations. After 11 days, media was removed and cells stained with 0.5% Crystal Violet (in 20% methanol) for 20 min with agitation @ 80 rpm. Stain was removed and plates with stained cells were washed by being submerged in excess deionized water and allowed to air dry overnight before imaging.

[9] = tested on: MOLM-13-Cas9-mCherry cells with SHP2 KO; assay: SHP2 CRISPR-Cas9 knockout inhibitor selectivity assay (cell viability); assay type: cell-based; settings: MOLM-13-Cas9-mCherry SHP2 KO cells, 72 h
Experimental: Finally, we evaluated the selectivity of our top two compounds, #01 and #02, on MOLM-13 AML cells in which SHP2 was depleted using CRISPR-Cas9 knock-out (KO). High-efficiency Cas9-editing MOLM-13 cells were generated by transducingMOLM-13 cells with a Cas9 lentiviral construct. Stable clones were tested for editing efficiency by performing TIDE analysis (45), and these MOLM13-Cas9 cells were transduced with a lentiviral construct containing an AAVS1 single guide RNA (sgRNA) and an mCherry reporter for bulk-sorting of cells with successful AAVS1 editing. SHP2 KO was achieved by transducing MOLM-13-Cas9-mCherry cells with a lentivirus containing SHP2 dual sgRNAs, resulting in ˜80% reduction of SHP2 protein levels (FIG. 3G). #01, #02, and the SHP2 allosteric inhibitor SHP099 were tested in parallel on regular MOLM-13 cells (expressing WT SHP2) and MOLM-13-Cas9-mCherry cells with SHP2 KO. Cells were treated with inhibitors at various concentrations (ranging from […] to 58 nM) or vehicle control (DMSO) for 72 h, before cell viability was assessed.
High-efficiency Cas9-editing MOLM-13 cells were generated by transducing MOLM-13 cells with the pLenti-Cas9-blasticidin construct (Addgene plasmid #52962) and selecting single stable clones using flow-sorting. Clones were then tested for editing efficiency by performing TIDE analysis (45). These MOLM13-Cas9 cells were then transduced with a lentiviral construct containing an AAVS sgRNA and an mCherry reporter out of frame and downstream of an AAVS sgRNA targeting site. […]
For SHP2 KO, dual sgRNAs targeting SHP2 were cloned in the pLentiGuide puro vector (Addgene plasmid #52963) using a published protocol (50). […] SHP2 KO was evaluated by immunoblotting. […] For SHP2 KO, MOLM-13-Cas9-mCherry cells were seeded in nontreated 6-well-plates ([…] in 2.5 mL), with cell numbers determined by trypan blue using the Countess Cell counter (Thermo Scientific). […] Cell viability was assessed using the ATP-depletion assay CellTiter-Glo® (Promega) as described above, and data were analyzed using GraphPad Prism software.

[10] = tested on: MLL-AF10 leukemia cells expressing wild-type SHP2; assay: Cell viability assay, MLL-AF10 cells expressing wild-type SHP2; assay type: cell-based, mouse
Experimental: (§5) Cell viability assays of SHP099, #01, and #02 against mouse MLL-AF10 leukemia cells were conducted. Two MLL-AF10 cell lines were employed, one expressing wild-type SHP2, and the other expressing E76K mutant SHP2.

[11] = tested on: MLL-AF10 leukemia cells expressing E76K mutant SHP2; assay: Cell viability assay, MLL-AF10 cells expressing E76K mutant SHP2; assay type: cell-based, mouse
Experimental: as §5

SMILES	ERK1/2 activation (p-ERK1/2 levels) [1]	effect on growth of patient-derived AML samples [2]	pIC50 [3]	ERK1/2 activation (p-ERK1/2 levels) [4]	pIC50 [5]	effect on TNBC cell viability [6]	effect on TNBC cell viability [7]	effect on colony formation [8]	effect on viability of SHP2 KO cells [9]	pIC50 [10]	cell viability IC50 [11]
Cc1nc(N2CCC3(CC2)CO[C@@H](C)[C@H]3N)c(CO)nc1-c1cccc(Cl)c1Cl [RMC-4550, reference compound]	highly effective in impeding ERK1/2 activation	only affected the growth of sample 2	4.48	a decrease in p-ERK1/2 levels was not detectable	–	–	–	–	–	–	–
CC1(N)CCN(c2cnc(-c3cccc(Cl)c3Cl)c(N)n2)CC1 [SHP099, reference compound]	–	–	–	–	5.03	very minor effect on TNBC cell viability	very minor effect on TNBC cell viability	very weak effect on colony formation	either no effect, or a greatly reduced effect	5.40	insufficient for an IC50 value to be determined
